Values of other authors as cited in US20230019999A1, “COMBINATION DRUG” (Chugai Seiyaku Kabushiki Kaisha, priority 2019, published 2023).

Test system: lung cancer cells positive for the CCDC6-RET fusion gene
Conditions: non-clinical studies, Non Patent Literatures 9 and 10

## CCc1cc2c(cc1N1CCC(N3CCOCC3)CC1)C(C)(C)c1[nH]c3cc(C#N)ccc3c1C2=O [Alectinib, 9-ethyl-6,6-dimethyl-8-[4-(morpholin-4-yl)-piperidin-1-yl]-11-oxo-6,11-dihydro-5H-benzo[b]carbazole-3-carbonitrile]
  anti-tumor effect: exhibit an anti-tumor effect
